biological target: T1, recombinant autotaxin (Homo sapiens, UniProt Q13822); experiment: Autotaxin test (enzyme test), Amplex Red fluorescence; assay type: biochemical; conditions: substrate LPC 75 μM, Amplex Red detection, read-out: IC50 (autotaxin inhibition, enzyme test)
T1 construct: made in house; host or cells: Hi5 insect cells (baculovirus)
Procedure: Autotaxin Inhibition (Enzyme Test)
Autotaxin Test (Enzyme Test)
The autotaxin activity is measured indirectly using Amplex Red reagent. Amplex Red is measured here as fluorogenic indicator for the H2O2 formed. In detail, autotaxin converts the substrate lysophosphatidylcholine (LPC) into phosphocholine and lysophosphatidylic acid (LPA). After this reaction, the phosphocholine is reacted with alkaline phosphatase to give inorganic phosphate and choline. In the next step, choline is oxidised by choline oxidase to give betaine, with formation of H2O2. H2O2 reacts with Amplex Red reagent in the presence of peroxidase (horseradish peroxidase) in a 1:1 stoichiometry and forms the highly fluorescent resorufin. The fluorescence is measured in a reaction-dependent kinetic mode in order that fluorescent signals from possible other fluorescent substances which are not involved in the reaction can be corrected out.
1.5 μl of a standard solution or of the test substances (substances with the name A(n)) in individual concentrations dissolved in 20 mM Hepes pH 7.2 with a maximum of 7.7% of DMSO are pre-incubated together with 10 μl (16 ng) of highly purified recombinant autotaxin in a black microtitre plate provided with 384 wells at 22° C. for 30 min. The reaction is then initiated by addition of 5 μl of L-α-lysophosphatidylcholine (LPC), where the final concentration of LPC is 75 μM. The mixture is incubated at 37° C. for 90 min. After the incubation, Amplex Red reagent, peroxidase (horseradish peroxidase) and choline oxidase is added, and the fluorescence is immediately measured at 612 nm with excitation of 485 nm in a “Tecan Ultra multimode” reader. The activity of autotaxin is calculated indirectly via detection of the H2O2 formed. • Material: • Microtitre plate: PS microplate, 384 wells, small volume, black Corning, Cat #3677 • Protein: recombinant autotaxin (Baculovirale Hi5 Expression) • Substrate: L-α-lysophosphatidylcholine (chicken egg)); Avanti Polar Lipids #830071 P • Standard: C14 LPA, Avanti Polar Lipids, Cat #857120P • Detection reagent: Amplex Red reagent; Invitrogen #A12222; dissolved in 1.923 ml of DMSO peroxidase type VI-A (horseradish) from Sigma #P6782; dissolved in 7.45 ml of test buffer, choline oxidase; Sigma #C5896; dissolved in 2.47 ml of test buffer • Detection reagent mix: 1:100 dilution of Amplex Red reagent in test buffer • Test buffer: 200 mM Tris HCl, Merck, Cat #1.08219, pH 7.9, 0.1% of BSA, lipid-free, Roche Cat #775835

`CCc1cccc(CC)c1NC(=O)Nc1[nH]c(Cc2ccc(C(=O)O)o2)nc1C(N)=O` [Compound A28, 5-{4-Carbamoyl-5-[3-(2,6-diethylphenyl)ureido]-1H-imidazol-2-ylmethyl}furan-2-carboxylic acid] and `CCc1cccc(C)c1NC(=O)Nc1[nH]c(Cc2ccc(C(=O)O)o2)nc1C(N)=O` [Compound A32, 5-{4-Carbamoyl-5-[3-(2-ethyl-6-methylphenyl)-ureido]-1H-imidazol-2-ylmethyl}furan-2-carboxylic acid] cannot be ordered by IC50: over 10 µM for the first, over 10 µM for the second.

First: NC(=O)c1nc(Cc2ccc(C(=O)O)o2)[nH]c1NC(=O)Nc1ccc2ccccc2c1 [Compound A33, 5-[4-Carbamoyl-5-(3-naphthalen-2-ylureido)-1H-imidazol-2-ylmethyl]furan-2-carboxylic acid]
Second: NC(=O)c1nc(Cc2ccc(C(=O)O)o2)[nH]c1NC(=O)Nc1ccc(Cl)cc1 [Compound A30, 5-{4-Carbamoyl-5-[3-(4-chlorophenyl)ureido]-1H-imidazol-2-ylmethyl}furan-2-carboxylic acid]
The IC50 of the first is higher: over 10 µM for the first, 1 to 10 µM for the second.

Compared with `Cc1c(Cl)cccc1NC(=O)Nc1[nH]c(Cc2ccc(C(=O)O)o2)nc1C(N)=O` [Compound A13, 5-{4-Carbamoyl-5-[3-(3-chloro-2-methylphenyl)-ureido]-1H-imidazol-2-ylmethyl}furan-2-carboxylic acid], `CCc1ccc(NC(=O)Nc2[nH]c(Cc3ccc(C(=O)O)o3)nc2C(N)=O)cc1` [Compound A11, 5-{4-Carbamoyl-5-[3-(4-ethylphenyl)ureido]-1H-imidazol-2-ylmethyl}furan-2-carboxylic acid] is lower in IC50: over 10 µM for the first, 1 to 10 µM for the second. The second is the more potent here.

`NC(=O)c1nc(Cc2ccc(C(=O)O)o2)[nH]c1NC(=O)Nc1ccc(C(F)(F)F)cc1` [Compound A10, 5-{4-Carbamoyl-5-[3-(4-trifluoromethylphenyl)-ureido]-1H-imidazol-2-ylmethyl}furan-2-carboxylic acid] and `NC(=O)c1nc(Cc2ccc(C(=O)O)cc2)[nH]c1NC(=O)Nc1ccc(C(F)(F)F)cc1` [Compound A15, 4-{4-Carbamoyl-5-[3-(4-tritluoromethylphenyl)-ureido]-1H-imidazol-2-ylmethyl}benzoic acid] fall in the same range of IC50: 1 to 10 µM for the first, 1 to 10 µM for the second.

`CCCCc1ccc(NC(=O)Nc2[nH]c(Cc3ccc(C(=O)N4CCN(c5ccccc5)CC4)o3)nc2C(N)=O)cc1` [Compound A86, 5-[3-(4-Butylphenyl)ureido]-2-[5-(4-phenyl-piperazine-1-carbonyl)furan-2-ylmethyl]-1H-imidazole-4-carboxamide] and `CCCCc1ccc(NC(=O)Nc2[nH]c(Cc3ccc(C(=O)N4CCC(C)CC4)o3)nc2C(N)=O)cc1` [Compound A87, 5-[3-(4-Butylphenyl)ureido]-2-[5-(4-methyl-piperidine-1-carbonyl)furan-2-ylmethyl]-1H-imidazole-4-carboxamide] cannot be ordered by IC50: over 10 µM for the first, over 10 µM for the second.

`CC(C)c1ccc(NC(=O)Nc2[nH]c(Cc3ccc(C(=O)O)s3)nc2C(N)=O)cc1` [Compound A68, 5-{4-Carbamoyl-5-[3-(4-isopropylphenyl)ureido]-1H-imidazol-2-ylmethyl}thiophene-2-carboxylic acid] and `NC(=O)c1nc(Cc2ccc(C(=O)O)s2)[nH]c1NC(=O)Nc1ccc(C(F)(F)F)cc1` [Compound A66, 5-{4-Carbamoyl-5-[3-(4-trifluoromethylphenyl)-ureido]-1H-imidazol-2-ylmethyl}thiophene-2-carboxylic acid] fall in the same range of IC50: 1 to 10 µM for the first, 1 to 10 µM for the second.

`CCCCCCNC(=O)Nc1[nH]c(Cc2ccc(C(=O)O)cc2)nc1C(N)=O` [Compound A4, 4-[4-Carbamoyl-5-(3-hexylureido)-1H-imidazol-2-ylmethyl]benzoic acid] and `Cc1cccc(C)c1NC(=O)Nc1[nH]c(Cc2ccc(C(=O)O)cc2)nc1C(N)=O` [Compound A16, 4-{4-Carbamoyl-5-[3-(2,6-dimethylphenyl)-ureido]-1H-imidazol-2-ylmethyl}benzoic acid] cannot be ordered by IC50: over 10 µM for the first, over 10 µM for the second.

`NC(=O)c1nc(Cc2ccc(C(=O)O)cc2)[nH]c1NC(=O)Nc1cc(C(F)(F)F)ccc1F` [Compound A17, 4-{4-Carbamoyl-5-[3-(2-tluoro-5-trifluoromethyl-phenyl)ureido]-1H-imidazol-2-ylmethyl}benzoic acid] and `NC(=O)c1nc(Cc2ccc(OCC(=O)O)cc2)[nH]c1NC(=O)Nc1cc(C(F)(F)F)ccc1F` [Compound A44, (4-{4-Carbamoyl-5-[3-(2-fluoro-5-trifluoromethyl-phenyl)ureido]-1H-imidazol-2-ylmethyl}phenoxy)-acetic acid] cannot be ordered by IC50: over 10 µM for the first, over 10 µM for the second.

`CC(C)c1ccc(NC(=O)Nc2[nH]c(-c3ccc(CC(=O)O)cc3)nc2C(N)=O)cc1` [Compound A23, (4-{4-Carbamoyl-5-[3-(4-isopropylphenyl)ureido]-1H-imidazol-2-yl}phenyl)acetic acid] and `NC(=O)c1nc(-c2ccc(CC(=O)O)cc2)[nH]c1NC(=O)Nc1ccc(Cl)cc1` [Compound A22, (4-{4-Carbamoyl-5-[3-(4-chlorophenyl)ureido]-1H-imidazol-2-yl}phenyl)acetic acid] cannot be ordered by IC50: over 10 µM for the first, over 10 µM for the second.

First: NC(=O)c1nc(COc2ccc(CC(=O)O)cc2)[nH]c1NC(=O)Nc1ccc(C(F)(F)F)cc1 [Compound A56, (4-{4-Carbamoyl-5-[3-(4-trifluoromethylphenyl)-ureido]-1H-imidazol-2-ylmethoxy}phenyl)acetic acid]
Second: NC(=O)c1nc(COc2ccc(CC(=O)O)cc2)[nH]c1NC(=O)Nc1ccc(F)c(C(F)(F)F)c1 [Compound A64, (4-{4-Carbamoyl-5-[3-(4-fluoro-3-trifluoromethyl-phenyl)ureido]-1 H-imidazol-2-ylmethoxy}phenyl)-acetic acid]
The IC50 of the first is lower: 1 to 10 µM for the first, over 10 µM for the second. The first is the more potent here.

`Cc1ccc(NC(=O)Nc2[nH]c(-c3ccc(OCC(=O)O)cc3)nc2C(N)=O)cc1` [Compound A53, {4-[4-Carbamoyl-5-(3-p-tolylureido)-1H-imidazol 2-yl]phenoxy}acetic acid] and `NC(=O)c1nc(-c2ccc(OCC(=O)O)cc2)[nH]c1NC(=O)Nc1ccccc1Cl` [Compound A47, (4-{4-Carbamoyl-5-[3-(2-chlorophenyl)ureido]-1H-imidazol-2-yl}phenoxy)acetic acid] cannot be ordered by IC50: over 10 µM for the first, over 10 µM for the second.

First: NC(=O)c1nc(Cc2ccc(C(=O)O)s2)[nH]c1NC(=O)Nc1ccc(F)c(C(F)(F)F)c1 [Compound A75, 5-{4-Carbamoyl-5-[3-(4-fluoro-3-trifluoromethyl-phenyl)ureido]-1H-imidazol-2-ylmethyl}-thiophene-2-carboxylic acid]
Second: NC(=O)c1nc(Cc2ccc(OCC(=O)O)cc2)[nH]c1NC(=O)Nc1ccc(Cl)cc1 [Compound A41, (4-{4-Carbamoyl-5-[3-(4-chlorophenyl)ureido]-1H-imidazol-2-ylmethyl}phenoxy)acetic acid]
The IC50 of the first is higher: over 10 µM for the first, 1 to 10 µM for the second.

`CCc1ccc(NC(=O)Nc2[nH]c(COc3ccc(CC(=O)O)cc3)nc2C(N)=O)cc1` [Compound A61, (4-{4-Carbamoyl-5-[3-(4-ethylphenyl)ureido]-1H-imidazol-2-ylmethoxy}phenyl)acetic acid] and `CC(C)c1ccc(NC(=O)Nc2[nH]c(COc3ccc(CC(=O)O)cc3)nc2C(N)=O)cc1` [Compound A57, (4-{4-Carbamoyl-5-[3-(4-isopropylphenyl)ureido]-1H-imidazol-2-ylmethoxy}phenyl)acetic acid] fall in the same range of IC50: 1 to 10 µM for the first, 1 to 10 µM for the second.

`CCCCc1ccc(NC(=O)Nc2[nH]c(Cc3ccc(C(=O)N(CCCC)CCCC)o3)nc2C(N)=O)cc1` [Compound A80, 5-[3-(4-Butylphenyl)ureido]-2-(5-dibutyl-carbamoylfuran-2-ylmethyl)-1H-imidazole-4-carboxamide] and `CCCCc1ccc(NC(=O)Nc2[nH]c(Cc3ccc(C(=O)NC4CCCCC4)o3)nc2C(N)=O)cc1` [Compound A77, 5-[3-(4-Butylphenyl)ureido]-2-(5-cyclohexyl-carbamoylfuran-2-ylmethyl)-1H-imidazole-4-carboxamide] cannot be ordered by IC50: over 10 µM for the first, over 10 µM for the second.

Compared with `NC(=O)c1nc(Cc2ccc(OCC(=O)O)cc2)[nH]c1NC(=O)c1cc(-c2ccc(Cl)cc2)n[nH]1` [Compound B82], `CCCCc1ccc(NC(=O)Nc2[nH]c(Cc3ccc(OCC(=O)O)cc3)nc2C(N)=O)cc1` [Compound A39, (4-{5-[3-(4-Butylphenyl)ureido]-4-carbamoyl-1H-imidazol-2-ylmethyl}phenoxy)acetic acid] is lower in IC50: over 10 µM for the first, 1 to 10 µM for the second. The second is the more potent here.

In the case of `NC(=O)c1nc(CCCCN2C(=O)c3ccccc3C2=O)[nH]c1NC(=O)Nc1ccc(Cl)cc1` [Compound B77], the IC50 is reported as over 10 µM.
